Measured values published in the supplement of paper PMC11451515.

Columns and labels:
Details in all cases: 48 h
P12-Ichikawa [1] = experiment: AUC of viability dose-response curve (% viability x log10 dose units); higher = less sensitive
Procedure, shortened: (§1)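 Over 48 h at 37°C, leukemia cells in 1536-well plates (500 or 1000 cells/well), adapted to each medium, received library compounds in DMSO at 11 threefold doses from 47 μM to 0.79 nM. CellTiter-Glo One luminescence, normalised per plate to DMSO and cell-free wells, was fitted by a four-parameter log-logistic function of log10 dose. The area under the curve was then integrated by trapezoidal rule, after scaling curves above full viability and removing those that failed quality control.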

NOMO1 [2] = experiment: as above
Procedure, shortened: as §1

SEM cells [3] = experiment: as above
Procedure, shortened: as §1

P12-Ichikawa [4] = experiment: cell viability relative to DMSO control; higher = less cytotoxic
Procedure, shortened: (§2)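 NOMO1 or SEM (500 cells/well) or P12-Ichikawa (1000 cells/well) leukemia cells were adapted for at least four passages in each medium. They were seeded in 1536-well plates (5 μl) and pin-dosed with library compounds in DMSO over an 11-point threefold series, 47 μM to 0.79 nM. CellTiter-Glo One luminescence was read after 48 h at 37°C. Viability is the per-plate percentage relative to DMSO wells, with cell-free wells as background.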

NOMO1 [5] = experiment: as above
Procedure, shortened: as §2

SEM cells [6] = experiment: as above
Procedure, shortened: as §2

CC(C)NCC(O)c1ccc(NS(C)(=O)=O)cc1 (stereo not drawn)
AUC of viability dose-response curve
Details | NOMO1 [2] | P12-Ichikawa [1] | SEM cells [3]
HPLM + 10% dialyzed FBS | 460 | 464 | 466
RPMI 5 mM glucose + 10% FBS | 447 | 472 | 447
RPMI 5 mM glucose + 10% dialyzed FBS | 461 | 457 | 468

cell viability [%]
Details | NOMO1 [5] | P12-Ichikawa [4] | SEM cells [6]
HPLM + 10% dialyzed FBS, 0.000781 µM | 110 | 104 | 110
HPLM + 10% dialyzed FBS, 0.00234 µM | 114 | 113 | 110
HPLM + 10% dialyzed FBS, 0.00702 µM | 110 | 96.3 | 93
HPLM + 10% dialyzed FBS, 0.0211 µM | 120 | 105 | 106
HPLM + 10% dialyzed FBS, 0.0632 µM | 126 | 117 | 111
HPLM + 10% dialyzed FBS, 0.19 µM | 119 | 111 | 124
HPLM + 10% dialyzed FBS, 0.569 µM | 101 | 104 | 108
HPLM + 10% dialyzed FBS, 1.71 µM | 113 | 108 | 105
HPLM + 10% dialyzed FBS, 5.12 µM | 109 | 98 | 111
HPLM + 10% dialyzed FBS, 15.4 µM | 102 | 102 | 116
HPLM + 10% dialyzed FBS, 46.1 µM | 111 | 100 | 108
RPMI 5 mM glucose + 10% FBS, 0.000781 µM | 90.5 | 109 | 109
RPMI 5 mM glucose + 10% FBS, 0.00234 µM | 91.9 | 102 | 104
RPMI 5 mM glucose + 10% FBS, 0.00702 µM | 104 | 99.9 | 117
RPMI 5 mM glucose + 10% FBS, 0.0211 µM | 86.2 | 105 | 106
RPMI 5 mM glucose + 10% FBS, 0.0632 µM | 90.7 | 97.9 | 109
RPMI 5 mM glucose + 10% FBS, 0.19 µM | 98.6 | 110 | 101
RPMI 5 mM glucose + 10% FBS, 0.569 µM | 89.4 | 106 | 96.2
RPMI 5 mM glucose + 10% FBS, 1.71 µM | 89 | 112 | 87.1
RPMI 5 mM glucose + 10% FBS, 5.12 µM | 94.1 | 101 | 92.7
RPMI 5 mM glucose + 10% FBS, 15.4 µM | 104 | 98.7 | 97.2
RPMI 5 mM glucose + 10% FBS, 46.1 µM | 94.2 | 101 | 107
RPMI 5 mM glucose + 10% dialyzed FBS, 0.000781 µM | 87.9 | 101 | 107
RPMI 5 mM glucose + 10% dialyzed FBS, 0.00234 µM | 103 | 102 | 99.1
RPMI 5 mM glucose + 10% dialyzed FBS, 0.00702 µM | 110 | 100 | 97.4
RPMI 5 mM glucose + 10% dialyzed FBS, 0.0211 µM | 102 | 98.6 | 104
RPMI 5 mM glucose + 10% dialyzed FBS, 0.0632 µM | 105 | 97 | 111
RPMI 5 mM glucose + 10% dialyzed FBS, 0.19 µM | 124 | 94.3 | 105
RPMI 5 mM glucose + 10% dialyzed FBS, 0.569 µM | 102 | 99.2 | 111
RPMI 5 mM glucose + 10% dialyzed FBS, 1.71 µM | 94.1 | 91 | 106
RPMI 5 mM glucose + 10% dialyzed FBS, 5.12 µM | 102 | 91 | 106
RPMI 5 mM glucose + 10% dialyzed FBS, 15.4 µM | 98.1 | 99.2 | 109
RPMI 5 mM glucose + 10% dialyzed FBS, 46.1 µM | 117 | 96.6 | 105
